Measured values as given in ChEMBL document CHEMBL4507268 (2021).

What was measured:
[1] = molecular target: Serine/threonine-protein kinase RIO2 (Homo sapiens) (UniProt Q9BVS4); settings: Compound concentration 1000.0 nM
[2] = molecular target: Serine/threonine-protein kinase 26 (Homo sapiens) (UniProt Q9P289); settings: Compound concentration 1000.0 nM
[3] = molecular target: T1, Serine/threonine-protein kinase ICK (Homo sapiens) (UniProt Q9UPZ9); settings: Compound concentration 1000.0 nM
T1 sequence (whole entry): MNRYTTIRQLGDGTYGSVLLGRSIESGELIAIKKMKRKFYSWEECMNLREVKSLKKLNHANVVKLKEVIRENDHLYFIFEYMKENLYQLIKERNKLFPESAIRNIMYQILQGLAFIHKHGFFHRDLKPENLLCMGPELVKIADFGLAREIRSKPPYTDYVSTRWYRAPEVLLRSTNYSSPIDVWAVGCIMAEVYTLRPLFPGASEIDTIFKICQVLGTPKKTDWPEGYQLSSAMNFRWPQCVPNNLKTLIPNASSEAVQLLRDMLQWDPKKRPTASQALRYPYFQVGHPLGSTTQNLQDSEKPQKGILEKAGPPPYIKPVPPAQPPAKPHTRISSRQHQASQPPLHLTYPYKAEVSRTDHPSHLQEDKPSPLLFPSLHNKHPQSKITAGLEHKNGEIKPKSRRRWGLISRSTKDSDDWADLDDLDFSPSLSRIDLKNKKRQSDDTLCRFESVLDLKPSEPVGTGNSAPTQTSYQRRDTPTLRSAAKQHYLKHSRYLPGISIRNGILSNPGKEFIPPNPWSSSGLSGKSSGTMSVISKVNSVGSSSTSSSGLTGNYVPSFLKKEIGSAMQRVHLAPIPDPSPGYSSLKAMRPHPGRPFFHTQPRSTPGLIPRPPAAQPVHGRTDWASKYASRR

[4] = molecular target: Cyclin-dependent kinase 17 (Homo sapiens) (UniProt Q00537); settings: Compound concentration 1000.0 nM
[5] = molecular target: Vascular endothelial growth factor receptor 1 (Homo sapiens) (UniProt P17948); settings: Compound concentration 1000.0 nM
[6] = molecular target: Serine/threonine-protein kinase Nek10 (Homo sapiens) (UniProt Q6ZWH5); settings: Compound concentration 1000.0 nM
[7] = molecular target: Serine/threonine-protein kinase 24 (Homo sapiens) (UniProt Q9Y6E0); settings: Compound concentration 1000.0 nM
[8] = molecular target: Serine/threonine-protein kinase Nek7 (Homo sapiens) (UniProt Q8TDX7); settings: Compound concentration 1000.0 nM
Serine/threonine-protein kinase Nek7 (Homo sapiens), sequence (Q8TDX7 whole entry, looked up): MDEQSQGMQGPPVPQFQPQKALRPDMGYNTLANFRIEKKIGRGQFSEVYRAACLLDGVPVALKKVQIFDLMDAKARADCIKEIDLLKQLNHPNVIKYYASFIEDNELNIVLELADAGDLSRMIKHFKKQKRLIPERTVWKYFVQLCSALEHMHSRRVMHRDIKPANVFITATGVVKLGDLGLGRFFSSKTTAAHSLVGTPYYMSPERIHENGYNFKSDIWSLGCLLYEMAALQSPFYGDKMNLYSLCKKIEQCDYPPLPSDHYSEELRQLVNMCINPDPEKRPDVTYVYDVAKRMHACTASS

[9] = tested on: Receptor-type tyrosine-protein kinase FLT3 (Homo sapiens), P36888 [UNDEFINED MUTATION]; settings: Compound concentration 1000.0 nM
[10] = molecular target: Serine/threonine-protein kinase N1 (Homo sapiens) (UniProt Q16512); settings: Compound concentration 1000.0 nM
[11] = tested on: BT-474; experiment: Proliferation assay: BT-474 (breast cancer); format: functional, cell-based; settings: Homo sapiens
[12] = molecular target: Dual specificity mitogen-activated protein kinase kinase 5 (Homo sapiens) (UniProt Q13163); settings: Compound concentration 1000.0 nM
[13] = molecular target: Serine/threonine-protein kinase TNNI3K (Homo sapiens) (UniProt Q59H18); settings: Compound concentration 1000.0 nM
Serine/threonine-protein kinase TNNI3K (Homo sapiens), sequence (Q59H18 whole entry, canonical isoform): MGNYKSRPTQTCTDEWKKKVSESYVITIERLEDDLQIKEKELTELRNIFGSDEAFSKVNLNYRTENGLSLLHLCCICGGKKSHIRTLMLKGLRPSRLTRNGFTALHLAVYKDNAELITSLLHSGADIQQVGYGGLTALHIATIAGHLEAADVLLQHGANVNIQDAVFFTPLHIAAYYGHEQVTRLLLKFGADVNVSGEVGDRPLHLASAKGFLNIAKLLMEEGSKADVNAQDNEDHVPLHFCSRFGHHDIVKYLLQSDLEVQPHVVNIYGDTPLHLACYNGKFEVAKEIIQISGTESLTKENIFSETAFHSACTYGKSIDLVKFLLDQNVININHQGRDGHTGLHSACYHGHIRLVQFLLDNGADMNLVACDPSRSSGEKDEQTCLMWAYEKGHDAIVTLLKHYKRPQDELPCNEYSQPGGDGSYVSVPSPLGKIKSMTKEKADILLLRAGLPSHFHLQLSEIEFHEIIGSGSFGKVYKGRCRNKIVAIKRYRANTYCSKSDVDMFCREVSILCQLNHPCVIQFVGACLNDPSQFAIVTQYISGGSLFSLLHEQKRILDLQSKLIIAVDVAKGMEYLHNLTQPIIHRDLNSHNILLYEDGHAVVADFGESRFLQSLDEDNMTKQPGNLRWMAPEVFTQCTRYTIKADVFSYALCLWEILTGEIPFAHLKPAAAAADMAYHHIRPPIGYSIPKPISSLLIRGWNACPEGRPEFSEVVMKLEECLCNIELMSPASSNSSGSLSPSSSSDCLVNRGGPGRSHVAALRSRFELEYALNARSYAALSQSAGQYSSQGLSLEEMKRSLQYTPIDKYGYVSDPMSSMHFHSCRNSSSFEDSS

[14] = molecular target: Phosphorylase b kinase gamma catalytic chain, skeletal muscle/heart isoform (Homo sapiens) (UniProt Q16816); settings: Compound concentration 1000.0 nM
[15] = tested on: Phosphatidylinositol 4,5-bisphosphate 3-kinase catalytic subunit alpha isoform (Homo sapiens), P42336 [H1047L]; settings: Compound concentration 1000.0 nM
Phosphatidylinositol 4,5-bisphosphate 3-kinase catalytic subunit alpha isoform (Homo sapiens), P42336 [H1047L], sequence (P42336 whole entry H1047L, canonical isoform): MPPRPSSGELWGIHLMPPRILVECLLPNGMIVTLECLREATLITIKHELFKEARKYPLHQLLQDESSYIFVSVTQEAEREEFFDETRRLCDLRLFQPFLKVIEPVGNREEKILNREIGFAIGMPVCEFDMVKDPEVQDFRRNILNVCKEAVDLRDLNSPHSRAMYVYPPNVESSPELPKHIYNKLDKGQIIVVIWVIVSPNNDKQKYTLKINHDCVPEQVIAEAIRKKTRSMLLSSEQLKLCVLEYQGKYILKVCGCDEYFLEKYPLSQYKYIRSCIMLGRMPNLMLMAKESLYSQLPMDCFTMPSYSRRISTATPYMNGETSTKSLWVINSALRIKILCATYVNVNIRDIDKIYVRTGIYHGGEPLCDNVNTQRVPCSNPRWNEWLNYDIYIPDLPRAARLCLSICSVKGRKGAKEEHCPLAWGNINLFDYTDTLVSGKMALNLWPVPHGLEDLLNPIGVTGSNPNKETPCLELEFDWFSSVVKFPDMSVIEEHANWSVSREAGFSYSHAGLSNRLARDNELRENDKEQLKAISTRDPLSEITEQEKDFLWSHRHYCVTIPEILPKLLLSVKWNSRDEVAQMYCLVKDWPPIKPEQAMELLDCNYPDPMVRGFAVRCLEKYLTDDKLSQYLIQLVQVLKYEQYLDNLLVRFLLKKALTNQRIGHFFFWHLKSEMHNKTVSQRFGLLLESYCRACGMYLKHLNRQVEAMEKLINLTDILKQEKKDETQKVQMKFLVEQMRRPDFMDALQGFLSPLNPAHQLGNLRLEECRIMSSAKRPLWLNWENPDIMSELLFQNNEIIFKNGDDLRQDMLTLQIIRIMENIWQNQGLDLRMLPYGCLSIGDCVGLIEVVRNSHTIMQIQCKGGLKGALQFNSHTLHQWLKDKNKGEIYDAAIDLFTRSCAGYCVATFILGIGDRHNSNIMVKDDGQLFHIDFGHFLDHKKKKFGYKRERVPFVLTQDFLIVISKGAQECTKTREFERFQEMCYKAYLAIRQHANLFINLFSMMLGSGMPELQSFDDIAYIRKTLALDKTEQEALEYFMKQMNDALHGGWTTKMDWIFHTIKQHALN

[16] = molecular target: Cyclin-dependent kinase 4 (Homo sapiens) (UniProt P11802); settings: Compound concentration 1000.0 nM
Cyclin-dependent kinase 4 (Homo sapiens), sequence (P11802 whole entry): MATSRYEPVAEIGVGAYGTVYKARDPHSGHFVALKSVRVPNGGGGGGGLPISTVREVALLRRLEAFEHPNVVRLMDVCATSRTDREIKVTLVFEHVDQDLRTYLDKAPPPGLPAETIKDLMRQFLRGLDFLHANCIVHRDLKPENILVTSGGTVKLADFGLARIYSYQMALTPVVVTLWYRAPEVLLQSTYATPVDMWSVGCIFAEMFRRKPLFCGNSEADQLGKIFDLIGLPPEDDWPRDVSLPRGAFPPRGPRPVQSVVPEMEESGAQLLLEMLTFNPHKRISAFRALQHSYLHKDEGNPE

[17] = molecular target: Interleukin-1 receptor-associated kinase 3 (Homo sapiens) (UniProt Q9Y616); settings: Compound concentration 1000.0 nM
Interleukin-1 receptor-associated kinase 3 (Homo sapiens), sequence (Q9Y616 whole entry): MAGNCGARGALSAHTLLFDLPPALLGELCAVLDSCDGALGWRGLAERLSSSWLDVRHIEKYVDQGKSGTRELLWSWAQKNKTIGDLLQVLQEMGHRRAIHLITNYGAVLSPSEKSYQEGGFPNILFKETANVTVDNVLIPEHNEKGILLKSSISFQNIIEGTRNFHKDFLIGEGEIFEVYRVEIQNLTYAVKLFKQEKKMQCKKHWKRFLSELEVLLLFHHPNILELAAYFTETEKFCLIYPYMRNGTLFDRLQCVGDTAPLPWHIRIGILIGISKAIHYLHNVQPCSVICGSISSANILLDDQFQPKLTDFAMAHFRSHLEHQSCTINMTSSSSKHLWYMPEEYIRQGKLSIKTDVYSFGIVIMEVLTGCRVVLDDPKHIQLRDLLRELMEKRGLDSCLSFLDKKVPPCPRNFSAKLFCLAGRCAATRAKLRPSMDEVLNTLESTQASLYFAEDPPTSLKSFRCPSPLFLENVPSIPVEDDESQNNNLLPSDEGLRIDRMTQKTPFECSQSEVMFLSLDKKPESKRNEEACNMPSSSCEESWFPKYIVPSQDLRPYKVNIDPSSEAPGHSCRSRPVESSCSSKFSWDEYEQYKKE

[18] = molecular target: Activin receptor type-2A (Homo sapiens) (UniProt P27037); settings: Compound concentration 1000.0 nM
[19] = molecular target: Proto-oncogene tyrosine-protein kinase receptor Ret (Homo sapiens) (UniProt P07949); settings: Compound concentration 1000.0 nM
[20] = molecular target: Serine/threonine-protein kinase PLK3 (Homo sapiens) (UniProt Q9H4B4); settings: Compound concentration 1000.0 nM
[21] = molecular target: T2, Ephrin type-B receptor 3 (Homo sapiens) (UniProt P54753); settings: Compound concentration 1000.0 nM
T2 sequence (whole entry): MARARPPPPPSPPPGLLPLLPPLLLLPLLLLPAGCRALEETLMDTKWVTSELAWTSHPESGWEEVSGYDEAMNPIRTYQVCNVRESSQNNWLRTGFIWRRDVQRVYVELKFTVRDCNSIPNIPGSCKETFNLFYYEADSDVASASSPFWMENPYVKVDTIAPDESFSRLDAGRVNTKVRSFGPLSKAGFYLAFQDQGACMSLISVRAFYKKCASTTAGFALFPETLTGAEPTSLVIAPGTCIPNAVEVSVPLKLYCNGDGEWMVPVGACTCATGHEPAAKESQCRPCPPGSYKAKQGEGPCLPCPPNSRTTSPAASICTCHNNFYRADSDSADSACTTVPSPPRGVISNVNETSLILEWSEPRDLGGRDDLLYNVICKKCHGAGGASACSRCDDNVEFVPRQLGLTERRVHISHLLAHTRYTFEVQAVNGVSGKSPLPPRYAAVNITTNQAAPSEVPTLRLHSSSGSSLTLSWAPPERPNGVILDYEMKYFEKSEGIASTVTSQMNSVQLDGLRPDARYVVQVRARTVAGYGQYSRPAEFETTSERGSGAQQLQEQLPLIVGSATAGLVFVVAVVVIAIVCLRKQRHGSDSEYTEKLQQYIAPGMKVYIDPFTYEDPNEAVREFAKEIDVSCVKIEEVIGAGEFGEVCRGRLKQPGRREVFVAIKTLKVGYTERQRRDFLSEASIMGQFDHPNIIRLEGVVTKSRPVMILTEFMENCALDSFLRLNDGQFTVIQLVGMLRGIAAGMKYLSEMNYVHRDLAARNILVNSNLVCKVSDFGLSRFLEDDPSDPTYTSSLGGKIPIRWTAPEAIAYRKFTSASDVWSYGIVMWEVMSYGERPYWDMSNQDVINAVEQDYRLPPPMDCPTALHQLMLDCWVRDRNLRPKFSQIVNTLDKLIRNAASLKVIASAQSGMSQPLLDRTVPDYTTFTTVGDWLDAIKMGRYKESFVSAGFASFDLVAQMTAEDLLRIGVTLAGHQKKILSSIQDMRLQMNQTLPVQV

[22] = molecular target: Mitogen-activated protein kinase kinase kinase kinase 5 (Homo sapiens) (UniProt Q9Y4K4); settings: Compound concentration 1000.0 nM
Mitogen-activated protein kinase kinase kinase kinase 5 (Homo sapiens), sequence (Q9Y4K4 whole entry, looked up): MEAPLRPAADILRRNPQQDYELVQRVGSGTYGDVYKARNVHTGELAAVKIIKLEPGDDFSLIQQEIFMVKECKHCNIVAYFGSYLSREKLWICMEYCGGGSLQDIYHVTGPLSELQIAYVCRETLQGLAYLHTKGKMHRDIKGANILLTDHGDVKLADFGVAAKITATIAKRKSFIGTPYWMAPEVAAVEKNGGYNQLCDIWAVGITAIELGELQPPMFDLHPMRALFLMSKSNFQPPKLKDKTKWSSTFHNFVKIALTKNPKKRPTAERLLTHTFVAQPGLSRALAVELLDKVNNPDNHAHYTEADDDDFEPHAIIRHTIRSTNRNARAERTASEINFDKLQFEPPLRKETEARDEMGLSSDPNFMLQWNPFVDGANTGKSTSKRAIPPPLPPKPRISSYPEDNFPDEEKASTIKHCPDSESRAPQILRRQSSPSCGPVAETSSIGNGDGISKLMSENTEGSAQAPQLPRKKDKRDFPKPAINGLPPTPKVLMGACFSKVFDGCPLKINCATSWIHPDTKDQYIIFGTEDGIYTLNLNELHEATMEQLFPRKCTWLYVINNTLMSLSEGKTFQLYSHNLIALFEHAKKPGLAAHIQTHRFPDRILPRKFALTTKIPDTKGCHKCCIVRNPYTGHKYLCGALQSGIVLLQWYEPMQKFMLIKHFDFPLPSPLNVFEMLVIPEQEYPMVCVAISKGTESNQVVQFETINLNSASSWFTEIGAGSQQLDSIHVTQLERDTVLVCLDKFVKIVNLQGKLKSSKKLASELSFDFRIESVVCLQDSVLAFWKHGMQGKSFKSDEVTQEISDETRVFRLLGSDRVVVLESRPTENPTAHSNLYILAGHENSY

[23] = molecular target: Phosphatidylinositol 4-phosphate 5-kinase type-1 gamma (Homo sapiens) (UniProt O60331); settings: Compound concentration 1000.0 nM
Phosphatidylinositol 4-phosphate 5-kinase type-1 gamma (Homo sapiens), sequence (O60331 whole entry): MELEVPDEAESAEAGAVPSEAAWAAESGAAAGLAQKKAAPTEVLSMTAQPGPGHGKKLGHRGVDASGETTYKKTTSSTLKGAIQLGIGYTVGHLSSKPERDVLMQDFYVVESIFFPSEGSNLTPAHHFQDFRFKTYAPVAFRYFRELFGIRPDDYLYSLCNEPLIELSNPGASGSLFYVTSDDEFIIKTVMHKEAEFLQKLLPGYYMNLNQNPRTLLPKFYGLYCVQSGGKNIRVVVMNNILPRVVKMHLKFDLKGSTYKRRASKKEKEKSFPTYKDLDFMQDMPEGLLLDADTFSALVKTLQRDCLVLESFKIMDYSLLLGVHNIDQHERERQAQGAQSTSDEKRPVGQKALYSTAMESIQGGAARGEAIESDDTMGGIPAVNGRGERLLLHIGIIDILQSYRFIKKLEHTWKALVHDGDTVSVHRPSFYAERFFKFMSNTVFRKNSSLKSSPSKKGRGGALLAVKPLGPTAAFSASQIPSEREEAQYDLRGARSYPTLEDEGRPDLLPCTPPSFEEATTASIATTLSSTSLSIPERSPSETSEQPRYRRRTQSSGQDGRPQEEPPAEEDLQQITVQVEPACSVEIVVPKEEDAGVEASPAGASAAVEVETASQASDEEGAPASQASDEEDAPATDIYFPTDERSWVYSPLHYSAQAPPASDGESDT

Serine/threonine-protein kinase 26 (Homo sapiens), sequence (Q9P289 2-416 limits assumed): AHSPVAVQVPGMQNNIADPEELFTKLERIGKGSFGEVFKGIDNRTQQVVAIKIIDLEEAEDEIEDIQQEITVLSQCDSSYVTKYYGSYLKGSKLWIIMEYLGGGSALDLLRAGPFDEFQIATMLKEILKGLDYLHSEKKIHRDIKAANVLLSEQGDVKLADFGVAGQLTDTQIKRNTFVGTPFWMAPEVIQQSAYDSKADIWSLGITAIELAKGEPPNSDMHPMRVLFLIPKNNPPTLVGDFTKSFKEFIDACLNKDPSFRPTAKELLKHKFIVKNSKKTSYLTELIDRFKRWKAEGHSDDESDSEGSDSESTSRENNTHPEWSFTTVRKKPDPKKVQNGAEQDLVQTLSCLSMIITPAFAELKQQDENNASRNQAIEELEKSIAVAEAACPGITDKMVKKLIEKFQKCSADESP

| Structure (SMILES) | residual activity [1] | residual activity [2] | residual activity [3] | residual activity [4] | residual activity [5] | residual activity [6] | residual activity [7] | residual activity [8] | residual activity [9] | residual activity [10] | IC50 [11] | residual activity [12] | residual activity [13] | residual activity [14] | residual activity [15] | residual activity [16] | residual activity [17] | residual activity [18] | residual activity [19] | residual activity [20] | also measured |
| --- | --- | --- | --- | --- | --- | --- | --- | --- | --- | --- | --- | --- | --- | --- | --- | --- | --- | --- | --- | --- | --- |
| Cc1nc(C2CCN(C(=O)c3ccc(OC(F)(F)F)cc3N)CC2)c2ncc(N3CCN(C)CC3)cc2n1 [BAY-693] | 100% | 100% | 84% | 88% | 88% | 100% | 97% | 100% | 84% | 100% | 27.6 µM (not active) | 83% | 100% | 100% | 87% | 99% | 99% | 100% | 100% | 100% | residual activity [21]: 100%; residual activity [22]: 100%; residual activity [23]: 94% |
| CN1CCN(c2cnc3c(C4CCN(C(=O)c5ccc(OC(F)(F)F)cc5N)CC4)ncnc3c2)CC1 [BAY-885] | 100% | 98% | 100% | 93% | 76% | 100% | 100% | 100% | 100% | 100% | > 30 µM (not active) | 86% | 100% | 100% | 100% | 98% | 100% | 100% | 100% | 100% | residual activity [21]: 100%; residual activity [22]: 99%; residual activity [23]: 100% |
